{"source": "patent US5510240A", "about": "“Method of screening a peptide library” (The Arizona Board of Regents, priority 1993, dated 1996)", "key": {"streptavidin": {"molecular_target": "T1, streptavidin (Streptomyces avidinii, UniProt P22629)", "T1 construct": "purchased Pierce, Rockford, Ill", "T1 sequence (P22629 25-183, species assumed)": "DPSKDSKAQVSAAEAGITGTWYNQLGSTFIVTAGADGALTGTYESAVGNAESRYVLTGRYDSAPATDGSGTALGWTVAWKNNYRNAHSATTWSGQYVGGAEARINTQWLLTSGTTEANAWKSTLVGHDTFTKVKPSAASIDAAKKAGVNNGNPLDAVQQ", "assay": "biotin inhibition of LHPQF-resin staining by streptavidin-alkaline phosphatase", "format": "binding", "procedure": "FIG. 8. […] A: 100 nM; B: 10 nM; C: 1 nM; and D: 0.1 nM biotin. Blank beads (β-Ala-aminocaproic acid-resin) were mixed 1:1 with the LHPQF-resin prior to incubating with streptavidin-alkaline phosphatase to serve as an internal negative control.\nThe LHPQF-resin was then mixed with streptavidin-alkaline phosphatase in the presence of varying concentration of biotin. […] The inhibition study establishes that the HPQ consensus sequence binds to the biotin-binding site of streptavidin."}, "[1]": {"system": "anti-v-mos monoclonal antibody", "assay": "bead staining with anti-v-mos monoclonal antibody", "format": "binding, mouse", "settings": "antibody 1 ug/ml; ABTS substrate with H2O2, 15 minutes", "procedure": "The long v-mos beads were mixed with a thousand fold excess of the short v-mos beads. Two milliliters of the purified anti-v-mos monoclonal antibody (1 μg/ml) in PBS with 0.1% polyoxyethylenesorbitan monolaurate (TWEEN 20®) was added to the mixture of long and short v-mos beads and incubated at room temperature for one hour with gentle mixing. The beads were then washed for one hour with gentle mixing. The beads were then washed on a small polypropylene disposable column (obtained from Isolab) where the beads were retained by the frit. The beads were then mixed with 2 ml of a secondary antibody at 1:2000 dilution for one hour. After washing, the beads were poured into a polystyrene petri dish and allowed to settle. […]\nThe beads were washed on a small polypropylene disposable column (obtained from Isolab) which retained the beads on a frit. […] The v-mos beads were readily distinguished.\nApproximately 230,000 beads were screened with an anti-v-mos alkaline phosphatase conjugate. […] Twenty-four of these beads were physically selected out and the amino acid sequence of eleven of them was determined. […]"}, "anti-β-endorphin MAb": {"system": "anti-β-endorphin MAb", "assay": "bead library screening with biotinylated anti-β-endorphin MAb and streptavidin-alkaline phosphatase", "format": "binding", "settings": "recycled pentapeptide library, 16 hours", "procedure": "Prior to using the same random peptide library to screen with anti-β-endorphin MAb, all the blue beads that had stained for streptavidin-alkaline phosphatase alone were removed. The remaining beads were then treated with 8M guanidine hydrochloride to remove any bound protein. This recycled library was then mixed with biotinylated anti-β-endorphin MAb (anti-β-endorphin, clone 3-E7, was obtained commercially from Boehringer Mannheim, Indianapolis, Ind.) for 16 hours. After extensive washing, a secondary step with streptavidin-alkaline phosphatase was used to trigger the staining reaction for the ELISA. […] Peptide analogues with various carboxyl terminus of these ligand leads were synthesized and their affinity (Ki) was determined using ^3 H!Leu-enkaphalin (New England Nuclear, Boston, Mass.) as the labelled ligand and the unlabelled peptides as the competing ligand (anti-β-endorphin assay, Section 10.1.2, supra)."}, "[2]": {"assay": "UV/VIS irradiation cleavage of ONb linker peptides, HPLC analysis", "format": "physicochemical", "settings": "in water", "procedure": "Each peptide was irradiated for 1 and 3 hours with ultraviolet (UV) and visible (VIS) light in 0.3 ml of water or 3/7 mixture of chloroethanol:dichloromethane. A total of 16+16 experiments were run and assayed.\nAfter exposure the supernatant was filtered off, lyophilized and re-dissolved to equal volumes of MeOH (0.3 ml). The products were analyzed on the HPLC."}, "[3]": {"assay": "peptide-bead reduction of nitro blue tetrazolium without exogenous enzyme", "format": "biochemical", "settings": "absence of exogenous enzyme", "text": "The peptide library was exposed to the chromogenic substrate nitro blue tetrazolium (NBT) chloride in the absence of exogeneous enzyme under conditions conducive to product formation, and positive reacting beads were identified. These beads were selected and sequenced."}, "anti-v-mos": {"system": "anti-v-mos", "settings": "known property of the commercial antibody; cited from earlier work"}}, "note": "Where no end group is shown, it is not given here.", "data": [{"compound": "O=C(O)CCCC[C@@H]1SC[C@@H]2NC(=O)N[C@@H]21", "note": "[biotin]", "values": [{"measurement": "effect on the staining of LHPQF-resin mimotope beads by streptavidin-alkaline phosphatase", "setting": "streptavidin; FIG. 8, 100, 10, 1 and 0.1 nM biotin", "value": "concentration-dependent inhibitory effect"}, {"measurement": "staining of the LHPQF-resin", "setting": "streptavidin; biotin at 0.1 nM", "value": "no effect"}, {"measurement": "staining of the LHPQF-resin", "setting": "streptavidin; biotin at 1.0 nM", "value": "partially inhibited"}, {"measurement": "staining of the LHPQF-resin", "setting": "streptavidin; biotin at 10 nM", "value": "partially inhibited"}, {"measurement": "staining of the LHPQF-resin", "setting": "streptavidin; biotin at 100 nM", "value": "completely blocked"}]}, {"compound": "Gly-Phe-Gly-Ser-Val-Tyr-aminocaproic acid-β-Ala-resin [PAM resin/v-mos peptide beads]", "values": [{"measurement": "bead color after anti-v-mos antibody and labelled secondary antibody", "setting": "[1]", "value": "turned dark green"}]}, {"compound": "YGGMV (not fully specified) [tested with carboxyl terminus OH, NH2, βA-OH, βA-NH2]", "values": [{"measurement": "identification as ligand in anti-β-endorphin MAb bead screening", "setting": "anti-β-endorphin MAb", "value": "identified"}]}, {"compound": "Fmoc-Trp-Tyr(OBu^t)-Phe-ONb-βAla-ACA-EDA-PepSyn K (WYFX; Fmoc, OBut, ONb-βAla-ACA-EDA-PepSyn K resin linkage) [peptide i]", "values": [{"measurement": "cleavage products", "setting": "[2]", "value": "cleaved to a single product"}]}, {"compound": "YGGLS (not fully specified) [tested with carboxyl terminus OH, NH2, βA-OH, βA-NH2]", "values": [{"measurement": "identification as ligand in anti-β-endorphin MAb bead screening", "setting": "anti-β-endorphin MAb", "value": "identified"}]}, {"compound": "YGGFT (not fully specified) [tested with carboxyl terminus OH, NH2, βA-OH, βA-NH2]", "values": [{"measurement": "identification as ligand in anti-β-endorphin MAb bead screening", "setting": "anti-β-endorphin MAb", "value": "identified"}]}, {"compound": "PNNNH (also: bead-bound) [PNNNH-bead]", "values": [{"measurement": "reduction of NBT to dark blue diformazan", "setting": "[3]", "value": "capable of reducing NBT to a dark blue diformazan pigment"}]}, {"compound": "YGGFQ (not fully specified) [tested with carboxyl terminus OH, NH2, βA-OH, βA-NH2]", "values": [{"measurement": "identification as ligand in anti-β-endorphin MAb bead screening", "setting": "anti-β-endorphin MAb", "value": "identified"}]}, {"compound": "YGGFA (not fully specified) [tested with carboxyl terminus OH, NH2, βA-OH, βA-NH2]", "values": [{"measurement": "identification as ligand in anti-β-endorphin MAb bead screening", "setting": "anti-β-endorphin MAb", "value": "identified"}]}, {"compound": "GSVYKA [short v-mos peptide]", "values": [{"measurement": "affinity of anti-v-mos antibody", "setting": "anti-v-mos", "value": "negligible affinity"}]}, {"compound": "YGGLQ (not fully specified) [tested with carboxyl terminus OH, NH2, βA-OH, βA-NH2]", "values": [{"measurement": "identification as ligand in anti-β-endorphin MAb bead screening", "setting": "anti-β-endorphin MAb", "value": "identified"}]}]}
